The record followed here is PMC3827627 (ACS chemical biology, 2013).

One test concerns the target PKA-RIα holoenzyme (Bos taurus, UniProt P00514). In kind it is biochemical. Conditions: for EC50: read-out: RIα EC50, LiReC assay, 6 nM PKA holoenzyme, 3 nM TR-IP20.
Another test addresses RIIβ-S112A holoenzyme (Rattus norvegicus, UniProt P12369, S112A). In kind it is biochemical. Conditions: LiReC assay; for EC50: read-out: RIIβ EC50, RIIβ-S112A holoenzyme, 6 nM PKA holoenzyme, 3 nM TR-IP20.

RIIβ-S112A holoenzyme, sequence (P12369 108-402 S112A): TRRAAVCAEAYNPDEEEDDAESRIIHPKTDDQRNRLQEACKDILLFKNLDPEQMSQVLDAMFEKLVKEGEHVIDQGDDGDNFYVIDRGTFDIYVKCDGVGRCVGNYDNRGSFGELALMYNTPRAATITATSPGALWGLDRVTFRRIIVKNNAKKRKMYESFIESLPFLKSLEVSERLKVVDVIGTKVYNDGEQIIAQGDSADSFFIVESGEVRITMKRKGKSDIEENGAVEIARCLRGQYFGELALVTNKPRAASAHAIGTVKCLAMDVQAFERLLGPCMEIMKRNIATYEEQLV
PKA-RIα holoenzyme, sequence (P00514 92-380): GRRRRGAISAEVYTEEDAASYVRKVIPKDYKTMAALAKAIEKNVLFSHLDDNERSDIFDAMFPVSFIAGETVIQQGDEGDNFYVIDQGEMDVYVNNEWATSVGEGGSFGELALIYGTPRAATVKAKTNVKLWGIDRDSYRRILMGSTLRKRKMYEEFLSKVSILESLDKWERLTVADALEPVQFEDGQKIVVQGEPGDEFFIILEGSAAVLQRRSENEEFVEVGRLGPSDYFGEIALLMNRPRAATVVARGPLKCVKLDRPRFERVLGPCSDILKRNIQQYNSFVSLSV

2-OMe cAMP: the EC50 on PKA-RIα holoenzyme was 5670 nM.

As to `O=C(Nc1ncnc2c1ncn2[C@@H]1O[C@@H]2COP(=O)(O)OC2C1O)c1ccccc1` (stereo in doubt) [6-Bnz cAMP], the EC50 turned out to be 170 nM on PKA-RIα holoenzyme and 35 nM at RIIβ-S112A holoenzyme.

Consider `Nc1nc(Cl)nc2c1ncn2[C@@H]1O[C@@H]2COP(=O)(O)OC2[C@@H]1O` (stereo partly shown) [2-Cl cAMP], for which the EC50 on PKA-RIα holoenzyme was 42 nM; on RIIβ-S112A holoenzyme, 45 nM.

For `O=[P@]1(S)OC[C@H]2O[C@@H](n3cnc4cc(Cl)c(Cl)cc43)[C@H](O)[C@@H]2O1` [5,6 DCl BIMPS], the EC50 on PKA-RIα holoenzyme was determined as 270 nM; on RIIβ-S112A holoenzyme, 129 nM.

As for `CCCC(=O)Nc1ncnc2c1ncn2[C@@H]1O[C@@H]2COP(=O)(O)O[C@H]2[C@H]1O` [6-MB cAMP], the EC50 at PKA-RIα holoenzyme was found to be 140 nM. Besides, on RIIβ-S112A holoenzyme, the “activation of RIIβ holoenzymes (in words)” value is “potent RIIβ activators” and the half-maximal effective concentration (EC50) stood at 39 nM.

Regarding `CC(C)(C)NC(=O)Nc1ncnc2c1ncn2[C@@H]1O[C@@H]2COP(=O)(O)O[C@H]2[C@H]1O` [6-MBC cAMP], the EC50 on PKA-RIα holoenzyme came to 289 nM; on RIIβ-S112A holoenzyme, 59 nM.

As for `O=P1(O)OC[C@H]2O[C@@H](n3cnc4c(Nc5ccccc5)ncnc43)[C@@H](O)C2O1` (stereo partly shown) [6-Phe cAMP], the figures for the concentration for a half-maximal effect (EC50) at PKA-RIα holoenzyme and at RIIβ-S112A holoenzyme were 92 nM and 20 nM, respectively.

Take `NCCCCCCNc1nc2c(N)ncnc2n1[C@@H]1O[C@@H]2COP(=O)(O)O[C@H]2[C@H]1O` [8-AHA cAMP]: the figures for the EC50 at PKA-RIα holoenzyme and on RIIβ-S112A holoenzyme were 116 nM and 197 nM, respectively.

In the case of `Nc1ncnc2c1nc(Br)n2[C@@H]1O[C@@H]2COP(=O)(O)O[C@H]2[C@H]1O` [8-Br cAMP], the EC50 on PKA-RIα holoenzyme was determined as 81 nM; at RIIβ-S112A holoenzyme, 184 nM.

On to `Nc1ncnc2c1nc(Sc1ccc(Cl)cc1)n2[C@@H]1O[C@@H]2COP(=O)(O)O[C@H]2[C@H]1O` [8-CPT cAMP], for which the EC50 at PKA-RIα holoenzyme came out at 33 nM; on RIIβ-S112A holoenzyme, 149 nM.

As for `Nc1ncnc2c1nc(Cl)n2[C@@H]1O[C@@H]2COP(=O)(O)O[C@H]2[C@H]1O` [8-Cl cAMP], the EC50 at PKA-RIα holoenzyme came to 58 nM; on RIIβ-S112A holoenzyme, 275 nM.

As for `CCCCCCNc1nc2c(N)ncnc2n1[C@@H]1O[C@@H]2COP(=O)(O)OC2[C@@H]1O` (stereo partly shown) [8-HA cAMP], the figures for the concentration giving a half-maximal response (EC50) on PKA-RIα holoenzyme and on RIIβ-S112A holoenzyme were 358 nM and 1150 nM, respectively.

In the case of `CNc1nc2c(N)ncnc2n1[C@@H]1O[C@@H]2COP(=O)(O)O[C@H]2[C@H]1O` [8-MA cAMP], the EC50 at PKA-RIα holoenzyme stood at 102 nM; at RIIβ-S112A holoenzyme, 223 nM.

As for `Nc1ncnc2c1nc(N1CCCCC1)n2[C@@H]1O[C@@H]2COP(=O)(O)O[C@H]2[C@H]1O` [8-PIP cAMP], the EC50 at PKA-RIα holoenzyme stood at 1020 nM; at RIIβ-S112A holoenzyme, 3950 nM.

As to `CCCN(CCC)c1ncnc2c1ncn2[C@@H]1O[C@@H]2COP(=O)(O)O[C@H]2[C@H]1O` [HE33], the “fold increase in EC50 relative to cAMP” value on PKA-RIα holoenzyme (RIα holoenzyme, HE33 vs cAMP) is recorded as 10 fold. Besides, the EC50 at PKA-RIα holoenzyme was 414 nM; on RIIβ-S112A holoenzyme it was 45 nM.

Take `Nc1ncnc2c1ncn2[C@@H]1O[C@@H]2COP(O)(=S)O[C@H]2[C@H]1O` (stereo partly shown) [Sp cAMP]: the EC50 on PKA-RIα holoenzyme was found to be 1590 nM; on RIIβ-S112A holoenzyme, 2270 nM.

Take `O=P1(S)OCC2OC(n3cnc4cc(Cl)c(Cl)cc43)C(O)C2O1` (stereo not shown) [Sp-5,6-DCl BIMPS]: the EC50 was 344 nM at PKA-RIα holoenzyme and 83 nM on RIIβ-S112A holoenzyme.

For `Nc1ncnc2c1nc(Br)n2[C@@H]1O[C@@H]2COP(O)(=S)O[C@H]2[C@H]1O` (stereo partly shown) [Sp-8-B cAMP], the results for the EC50 at PKA-RIα holoenzyme and at RIIβ-S112A holoenzyme were 1360 nM and 435 nM, respectively.

Consider `Nc1ncnc2c1nc(Sc1ccc(Cl)cc1)n2[C@@H]1O[C@@H]2CO[P@](=O)(S)O[C@H]2[C@H]1O` [Sp-8-CPT cAMP], for which the EC50 on PKA-RIα holoenzyme turned out to be 342 nM; on RIIβ-S112A holoenzyme, 96 nM.

For the compound `Nc1ncnc2c1nc(N1CCCCC1)n2[C@@H]1O[C@@H]2COP(O)(=S)O[C@@H]2C1O` (stereo partly shown) [Sp-8-PIP cAMP], the EC50 was 5050 nM on PKA-RIα holoenzyme and 2960 nM on RIIβ-S112A holoenzyme.

With `Nc1nc2c(ncn2[C@@H]2O[C@@H]3COP(=O)(O)O[C@H]3[C@H]2O)c(=O)[nH]1` [cGMP], the EC50 at PKA-RIα holoenzyme was found to be 15000 nM; at RIIβ-S112A holoenzyme, 5080 nM.

For orientation: EC50 means the midpoint of the concentration-response curve.
